The source made the active and inactive calls. The calls are words filed in the database; no cut-off is given here.
What was measured:
[1] = system: MCF7; assay: Antiproliferative activity against human MCF7 cells; assay type: functional, cell-based
[2] = system: A549; assay: Antiproliferative activity against human A549 cells at 10 to 100 uM incubated for 48 hrs by MTT assay; assay type: functional, cell-based
[3] = system: HeLa; assay: Antiproliferative activity against human HeLa cells incubated for 48 hrs by MTT assay; assay type: functional, cell-based
[4] = system: B16-F10; assay: Antiproliferative activity against mouse B16F10 cells at 10 to 100 uM incubated for 48 hrs by MTT assay; assay type: functional, cell-based
[5] = system: HeLa; assay: Antiproliferative activity against human HeLa cells at 10 to 100 uM incubated for 48 hrs by MTT assay; assay type: functional, cell-based
[6] = Selectivity index, ratio of IC50 for cytotoxicity in HEK293 cells assessed as reduction in cell viability incubated for 48 hrs by MTT assay to IC50 for antiproliferative activity against human A549 cells incubated for 48 hrs by MTT assay; assay type: toxicity, cell-based; conditions: read-out: Ratio IC50
[7] = system: B16-F10; assay: Antiproliferative activity against mouse B16F10 cells incubated for 48 hrs by MTT assay; assay type: functional, cell-based; conditions: B16-F10, 48 h
[8] = system: A549; assay: Antiproliferative activity against human A549 cells incubated for 48 hrs by MTT assay; assay type: functional, cell-based; conditions: A549, 48 h
[9] = Selectivity index, ratio of IC50 for cytotoxicity in HEK293 cells assessed as reduction in cell viability incubated for 48 hrs by MTT assay to IC50 for antiproliferative activity against human HeLa cells incubated for 48 hrs by MTT assay; assay type: toxicity, cell-based; conditions: read-out: Ratio IC50
[10] = system: B16-F10; assay: Induction of apoptosis in mouse B16F10 cells assessed as early apoptosis cells level at 7 uM incubated for 48 hrs by Annexin V-FITC and PI staining based flow cytometry (reference value: 0.03 +/- 0.013%); assay type: functional
[11] = Selectivity index, ratio of IC50 for cytotoxicity in HEK293 cells assessed as reduction in cell viability incubated for 48 hrs by MTT assay to IC50 for antiproliferative activity against mouse B16F10 cells incubated for 48 hrs by MTT assay; assay type: toxicity, cell-based; conditions: read-out: Ratio IC50
[12] = system: B16-F10; assay: Induction of apoptosis in mouse B16F10 cells assessed as late apoptosis cells level at 7 uM incubated for 48 hrs by Annexin V-FITC and PI staining based flow cytometry (reference value: 0.02 +/- 0.21%); assay type: functional
[13] = system: HEK293; assay: Cytotoxicity in HEK293 cells assessed as reduction in cel viability incubated for 48 hrs by MTT assay; assay type: cell-based; conditions: Homo sapiens, HEK293, 48 h

| SMILES | IC50 [1] [µM] | Activity [2] | IC50 [3] [µM] | Activity [4] | Activity [5] | selectivity ratio at 48 h [6] | IC50 [7] [µM] | IC50 [8] [µM] | selectivity ratio at 48 h [9] | Activity [10] [%] | selectivity ratio at 48 h [11] | Activity [12] [%] | IC50 [13] [µM] |
| --- | --- | --- | --- | --- | --- | --- | --- | --- | --- | --- | --- | --- | --- |
| COc1ccccc1[Se]c1c(-c2ccccc2)nc2ccc(F)cn12 | 12.5 |  |  |  |  |  |  |  |  |  |  |  |  |
| COc1ccc(-c2cn3cc(C4=CCN(C(=O)C(C)(C)C)CC4)ccc3n2)cc1OC |  | Active | 5.48 | Active | Active | 10 to 14 | 7.1 | 4.34 | 10 to 14 | 25.4 | 10 to 14 | 57.3 | 66.6 |
